Test results published in publication PMC8658787, “Screening of Potential Thrombin and Factor Xa Inhibitors from the Danshen–Chuanxiong Herbal Pair through a Spectrum–Effect Relationship Analysis” (Molecules, 2021).

Biological target: T1, thrombin (THR) (Homo sapiens, UniProt P00734)
T1 construct: purchased Sigma-Aldrich
Assay: THR inhibitory activity assay (chromogenic substrate S-2238, absorbance at 405 nm)
Assay type: biochemical
Settings: in vitro enzymatic activity assay
Procedure: (§1) A stock solution of THR (125 U/mL) was prepared by dissolving 4.16 mg of THR in 1.0 mL of PBS. A stock solution of FXa (0.5 IU/mL) was prepared by dissolving 5.0 mg of FXa in 1.0 mL of PBS. Stock solutions of S-2238 (2 mg/mL) and S-2765 (2.5 mg/mL) were prepared in PBS. The DC extract samples (10 mg/mL) were prepared in a PBS buffer and diluted to 5.0 and 2.5 mg/mL as necessary.
(§2) THR and FXa inhibitory activity assays were performed with an iMark™ Microplate Absorbance Reader (Bio-Rad Laboratories, Inc., Hercules, CA, USA). A DC extract solution of 50 μL and a 50 μL THR solution were mixed and incubated for 10 min at 37 °C. Subsequently, a 100 μL S-2238 (2 mg/mL) solution as the chromogenic substrate was added to start the reaction in the microplate reader. The absorbance was monitored at 405 nm every 30 s for 10 min, and each group was measured three times. […] Except for the enzyme solution and chromogenic substrate, the procedure for assessing the FXa inhibitory activity was exactly the same as for THR. The inhibition rate (%) of THR and FXa was calculated using Formula (1). (1) I(%)=[(dA/dt)blank−(dA/dt)sample]/(dA/dt)blank where I(%) represents the % of inhibition, and (dA/dt)blank and (dA/dt)sample represent the reaction rate of the control and experimental group, respectively. The results were expressed as the mean ± standard deviation (SD) of three experiments.

Row | IC50 [µM] | SMILES
1 | 185 | O=C(/C=C/c1ccc(O)c(O)c1)O[C@@H]1C[C@](O)(C(=O)O)C[C@@H](O)[C@H]1O [Chlorogenic acid]
2 | 1460 | CCC/C=C1\OC(=O)C2=C1CCC=C2 [Z-ligustilide]

Biological target: factor Xa (FXa) (Homo sapiens, UniProt P00742)
Sequence (P00742 235-488 limits assumed): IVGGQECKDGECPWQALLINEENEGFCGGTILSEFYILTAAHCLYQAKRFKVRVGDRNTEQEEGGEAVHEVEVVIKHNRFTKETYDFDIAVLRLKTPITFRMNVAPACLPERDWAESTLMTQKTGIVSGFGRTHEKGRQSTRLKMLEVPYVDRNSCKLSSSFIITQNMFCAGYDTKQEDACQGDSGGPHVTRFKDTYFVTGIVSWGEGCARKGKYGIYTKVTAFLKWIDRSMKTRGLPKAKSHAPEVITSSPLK
Sequence (P00742 41-179 partner limits assumed): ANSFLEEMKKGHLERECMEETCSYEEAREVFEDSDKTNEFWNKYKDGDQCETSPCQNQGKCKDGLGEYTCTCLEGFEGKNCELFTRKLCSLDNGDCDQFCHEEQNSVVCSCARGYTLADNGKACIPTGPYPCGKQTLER
Assay: FXa inhibitory activity assay (chromogenic substrate S-2765, absorbance at 405 nm)
Assay type: biochemical
Settings: in vitro enzymatic activity assay
Procedure: as §1, §2

Row | SMILES | IC50 [µM]
3 | O=C(O)/C=C/c1ccc(O)c(O)c1 [Caffeic acid] | 3790
4 | COc1cc(/C=C/C(=O)O)ccc1O [Ferulic acid] | 2490

Second part, the compound after the results:

Row | IC50 [µM] | SMILES
5 | 138 | Cc1coc2c1C(=O)C(=O)c1c-2ccc2c1CCCC2(C)C [Tanshinone IIA]
6 | 113 | Cc1coc2c1C(=O)C(=O)c1c-2ccc2c(C)cccc12 [Tanshinone I]
